According to paper PMC6704710, “Preclinical evaluation of 3D185, a novel potent inhibitor of FGFR1/2/3 and CSF-1R, in FGFR-dependent and macrophage-dominant cancer models” (Journal of Experimental & Clinical Cancer Research : CR, 2019):

How the values were obtained:
Assay in all cases: Eurofins kinase panel
Format in all cases: biochemical
[1] = molecular target: T1, CLK1(h) (Homo sapiens, UniProt P49759); conditions: read-out: Inhibition rate (%)
T1 construct: purchased Eurofins (KinaseProfiler)

[2] = molecular target: T2, NEK1(h) (Homo sapiens, UniProt Q96PY6); conditions: read-out: Inhibition rate (%)
T2 construct: purchased Eurofins (KinaseProfiler)
T2 sequence (Q96PY6 1-1258): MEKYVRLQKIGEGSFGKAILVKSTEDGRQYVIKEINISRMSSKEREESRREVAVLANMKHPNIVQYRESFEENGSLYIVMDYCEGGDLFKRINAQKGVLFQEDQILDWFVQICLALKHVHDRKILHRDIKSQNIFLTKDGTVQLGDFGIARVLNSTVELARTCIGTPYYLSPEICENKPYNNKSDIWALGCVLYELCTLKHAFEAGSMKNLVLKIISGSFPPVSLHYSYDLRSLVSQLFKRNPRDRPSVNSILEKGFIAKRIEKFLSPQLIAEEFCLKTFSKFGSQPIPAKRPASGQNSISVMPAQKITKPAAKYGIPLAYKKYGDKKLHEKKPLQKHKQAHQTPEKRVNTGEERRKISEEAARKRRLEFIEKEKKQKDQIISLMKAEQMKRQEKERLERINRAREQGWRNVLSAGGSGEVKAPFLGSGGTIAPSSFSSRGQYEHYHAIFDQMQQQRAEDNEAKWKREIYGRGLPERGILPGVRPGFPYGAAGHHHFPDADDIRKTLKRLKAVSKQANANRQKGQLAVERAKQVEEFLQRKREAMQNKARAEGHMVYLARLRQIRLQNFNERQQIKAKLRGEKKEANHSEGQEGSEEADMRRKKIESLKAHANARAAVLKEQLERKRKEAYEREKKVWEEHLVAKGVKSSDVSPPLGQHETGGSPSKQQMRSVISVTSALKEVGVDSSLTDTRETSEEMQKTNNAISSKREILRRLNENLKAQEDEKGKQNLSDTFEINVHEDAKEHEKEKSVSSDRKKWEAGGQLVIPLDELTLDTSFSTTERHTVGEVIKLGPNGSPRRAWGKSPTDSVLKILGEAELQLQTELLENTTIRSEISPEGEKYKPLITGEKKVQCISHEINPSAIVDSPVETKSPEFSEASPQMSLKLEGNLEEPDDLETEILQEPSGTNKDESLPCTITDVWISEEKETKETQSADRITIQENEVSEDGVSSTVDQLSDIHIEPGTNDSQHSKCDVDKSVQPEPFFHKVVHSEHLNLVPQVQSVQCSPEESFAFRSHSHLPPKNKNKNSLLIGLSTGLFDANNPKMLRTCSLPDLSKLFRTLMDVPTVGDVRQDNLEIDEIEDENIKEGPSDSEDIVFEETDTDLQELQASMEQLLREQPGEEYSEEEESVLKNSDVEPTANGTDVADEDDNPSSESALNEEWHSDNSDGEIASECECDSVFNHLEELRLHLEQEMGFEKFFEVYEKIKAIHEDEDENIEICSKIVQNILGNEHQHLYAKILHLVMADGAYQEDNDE

[3] = molecular target: FGFR3(h) (Homo sapiens, UniProt P22607)
[4] = molecular target: T3, TTBK2(h) (Homo sapiens, UniProt Q6IQ55); conditions: read-out: Inhibition rate (%)
T3 construct: purchased Eurofins (KinaseProfiler)

[5] = molecular target: T4, CDK18/cyclinY(h) (Homo sapiens, UniProt Q07002); conditions: read-out: Inhibition rate (%)
T4 construct: purchased Eurofins (KinaseProfiler)
T4 sequence (Q07002 whole entry): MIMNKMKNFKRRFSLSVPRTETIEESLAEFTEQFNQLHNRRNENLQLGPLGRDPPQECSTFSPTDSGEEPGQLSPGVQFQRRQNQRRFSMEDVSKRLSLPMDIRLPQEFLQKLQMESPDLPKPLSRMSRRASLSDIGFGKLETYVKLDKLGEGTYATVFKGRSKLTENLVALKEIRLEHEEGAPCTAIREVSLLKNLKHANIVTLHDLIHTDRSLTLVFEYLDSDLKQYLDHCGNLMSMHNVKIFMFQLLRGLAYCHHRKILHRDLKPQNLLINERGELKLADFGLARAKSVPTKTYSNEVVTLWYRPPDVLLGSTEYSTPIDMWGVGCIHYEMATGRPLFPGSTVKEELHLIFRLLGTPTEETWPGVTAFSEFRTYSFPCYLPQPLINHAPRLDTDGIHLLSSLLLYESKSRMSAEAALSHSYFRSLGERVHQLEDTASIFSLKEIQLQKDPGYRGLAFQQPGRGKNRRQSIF
T4 sequence (Q8ND76 whole entry partner): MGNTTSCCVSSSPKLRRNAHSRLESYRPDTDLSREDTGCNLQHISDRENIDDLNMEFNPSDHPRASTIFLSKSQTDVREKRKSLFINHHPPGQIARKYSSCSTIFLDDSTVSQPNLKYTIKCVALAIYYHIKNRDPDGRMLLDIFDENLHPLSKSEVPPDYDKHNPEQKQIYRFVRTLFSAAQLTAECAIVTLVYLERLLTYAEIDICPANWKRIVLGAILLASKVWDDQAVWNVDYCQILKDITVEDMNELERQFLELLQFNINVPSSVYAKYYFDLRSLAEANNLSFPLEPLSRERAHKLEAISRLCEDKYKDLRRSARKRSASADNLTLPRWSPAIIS

[6] = molecular target: T5, STK33(h) (Homo sapiens, UniProt Q9BYT3); conditions: read-out: Inhibition rate (%)
T5 construct: purchased Eurofins (KinaseProfiler)

[7] = molecular target: T6, PAK6(h) (Homo sapiens, UniProt Q9NQU5); conditions: read-out: Inhibition rate (%)
T6 construct: purchased Eurofins (KinaseProfiler)

[8] = molecular target: T7, PI3KC2α(h) (Homo sapiens, UniProt O00443); conditions: read-out: Inhibition rate (%)
T7 construct: purchased Eurofins (KinaseProfiler)
T7 sequence (O00443 whole entry): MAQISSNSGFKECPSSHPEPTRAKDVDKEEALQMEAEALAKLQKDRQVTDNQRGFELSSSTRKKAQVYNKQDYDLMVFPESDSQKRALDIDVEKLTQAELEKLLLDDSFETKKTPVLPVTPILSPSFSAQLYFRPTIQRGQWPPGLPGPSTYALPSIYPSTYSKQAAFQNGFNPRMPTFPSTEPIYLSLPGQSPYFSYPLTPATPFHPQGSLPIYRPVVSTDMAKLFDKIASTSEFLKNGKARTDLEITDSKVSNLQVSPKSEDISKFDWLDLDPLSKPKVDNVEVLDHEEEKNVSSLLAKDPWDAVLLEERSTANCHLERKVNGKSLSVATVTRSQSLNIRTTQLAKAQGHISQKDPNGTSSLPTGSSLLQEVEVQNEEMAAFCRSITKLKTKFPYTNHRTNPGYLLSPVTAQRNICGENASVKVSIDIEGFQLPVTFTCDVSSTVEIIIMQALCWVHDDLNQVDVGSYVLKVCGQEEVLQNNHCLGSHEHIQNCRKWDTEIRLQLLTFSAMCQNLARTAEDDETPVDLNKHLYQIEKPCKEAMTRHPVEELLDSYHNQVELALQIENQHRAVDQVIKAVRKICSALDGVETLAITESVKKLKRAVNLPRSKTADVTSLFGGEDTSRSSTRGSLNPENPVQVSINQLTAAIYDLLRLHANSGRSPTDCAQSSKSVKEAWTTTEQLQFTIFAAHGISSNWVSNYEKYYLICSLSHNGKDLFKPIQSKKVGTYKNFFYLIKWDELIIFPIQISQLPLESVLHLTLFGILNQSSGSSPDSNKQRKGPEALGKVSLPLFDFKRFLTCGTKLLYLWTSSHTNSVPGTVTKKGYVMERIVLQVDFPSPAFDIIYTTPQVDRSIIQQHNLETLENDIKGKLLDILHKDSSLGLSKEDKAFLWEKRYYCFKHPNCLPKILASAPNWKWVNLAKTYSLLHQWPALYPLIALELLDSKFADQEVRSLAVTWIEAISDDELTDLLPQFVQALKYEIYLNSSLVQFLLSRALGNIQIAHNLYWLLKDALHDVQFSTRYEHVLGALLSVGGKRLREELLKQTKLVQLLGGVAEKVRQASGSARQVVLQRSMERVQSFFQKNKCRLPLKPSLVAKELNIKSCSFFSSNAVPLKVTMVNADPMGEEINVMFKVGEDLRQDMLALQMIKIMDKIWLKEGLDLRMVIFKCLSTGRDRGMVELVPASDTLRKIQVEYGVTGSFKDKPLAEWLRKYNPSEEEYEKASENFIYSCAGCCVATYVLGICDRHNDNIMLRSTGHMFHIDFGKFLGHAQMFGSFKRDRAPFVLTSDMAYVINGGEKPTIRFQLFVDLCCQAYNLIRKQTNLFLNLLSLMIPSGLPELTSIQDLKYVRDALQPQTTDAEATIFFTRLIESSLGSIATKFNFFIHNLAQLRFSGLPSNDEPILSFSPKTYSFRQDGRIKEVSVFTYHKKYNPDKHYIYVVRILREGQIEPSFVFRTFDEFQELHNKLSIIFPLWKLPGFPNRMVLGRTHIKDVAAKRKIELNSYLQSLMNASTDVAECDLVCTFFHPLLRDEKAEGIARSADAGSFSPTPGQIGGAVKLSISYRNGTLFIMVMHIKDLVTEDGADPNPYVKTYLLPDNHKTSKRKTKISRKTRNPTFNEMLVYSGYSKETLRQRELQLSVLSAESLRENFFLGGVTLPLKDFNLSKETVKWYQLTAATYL

[9] = tested on: CK1(y)
[10] = molecular target: T8, MELK(h) (Homo sapiens, UniProt Q14680); conditions: read-out: Inhibition rate (%)
T8 construct: purchased Eurofins (KinaseProfiler)
T8 sequence (Q14680 whole entry): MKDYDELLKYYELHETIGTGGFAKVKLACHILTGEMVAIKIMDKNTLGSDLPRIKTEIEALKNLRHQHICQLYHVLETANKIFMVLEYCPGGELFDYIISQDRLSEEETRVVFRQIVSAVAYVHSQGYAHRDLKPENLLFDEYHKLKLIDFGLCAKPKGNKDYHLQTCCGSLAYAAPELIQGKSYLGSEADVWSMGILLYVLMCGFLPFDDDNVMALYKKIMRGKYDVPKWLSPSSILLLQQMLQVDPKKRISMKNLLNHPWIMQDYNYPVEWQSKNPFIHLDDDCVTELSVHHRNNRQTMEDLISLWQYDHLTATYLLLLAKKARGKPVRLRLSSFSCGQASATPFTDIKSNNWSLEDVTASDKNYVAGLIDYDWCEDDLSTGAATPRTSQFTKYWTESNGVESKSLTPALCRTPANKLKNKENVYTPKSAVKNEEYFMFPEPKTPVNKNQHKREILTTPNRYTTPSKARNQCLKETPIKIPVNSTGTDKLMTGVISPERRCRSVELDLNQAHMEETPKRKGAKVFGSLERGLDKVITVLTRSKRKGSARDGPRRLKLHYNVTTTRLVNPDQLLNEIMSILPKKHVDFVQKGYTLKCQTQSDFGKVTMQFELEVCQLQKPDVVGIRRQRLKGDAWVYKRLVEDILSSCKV

[11] = molecular target: T9, VRK2(h) (Homo sapiens, UniProt Q86Y07); conditions: read-out: Inhibition rate (%)
T9 construct: purchased Eurofins (KinaseProfiler)

[12] = molecular target: T10, Ret(h) (Homo sapiens, UniProt P07949); conditions: read-out: Inhibition rate (%)
T10 construct: purchased Eurofins (KinaseProfiler)
T10 sequence (P07949 29-1114): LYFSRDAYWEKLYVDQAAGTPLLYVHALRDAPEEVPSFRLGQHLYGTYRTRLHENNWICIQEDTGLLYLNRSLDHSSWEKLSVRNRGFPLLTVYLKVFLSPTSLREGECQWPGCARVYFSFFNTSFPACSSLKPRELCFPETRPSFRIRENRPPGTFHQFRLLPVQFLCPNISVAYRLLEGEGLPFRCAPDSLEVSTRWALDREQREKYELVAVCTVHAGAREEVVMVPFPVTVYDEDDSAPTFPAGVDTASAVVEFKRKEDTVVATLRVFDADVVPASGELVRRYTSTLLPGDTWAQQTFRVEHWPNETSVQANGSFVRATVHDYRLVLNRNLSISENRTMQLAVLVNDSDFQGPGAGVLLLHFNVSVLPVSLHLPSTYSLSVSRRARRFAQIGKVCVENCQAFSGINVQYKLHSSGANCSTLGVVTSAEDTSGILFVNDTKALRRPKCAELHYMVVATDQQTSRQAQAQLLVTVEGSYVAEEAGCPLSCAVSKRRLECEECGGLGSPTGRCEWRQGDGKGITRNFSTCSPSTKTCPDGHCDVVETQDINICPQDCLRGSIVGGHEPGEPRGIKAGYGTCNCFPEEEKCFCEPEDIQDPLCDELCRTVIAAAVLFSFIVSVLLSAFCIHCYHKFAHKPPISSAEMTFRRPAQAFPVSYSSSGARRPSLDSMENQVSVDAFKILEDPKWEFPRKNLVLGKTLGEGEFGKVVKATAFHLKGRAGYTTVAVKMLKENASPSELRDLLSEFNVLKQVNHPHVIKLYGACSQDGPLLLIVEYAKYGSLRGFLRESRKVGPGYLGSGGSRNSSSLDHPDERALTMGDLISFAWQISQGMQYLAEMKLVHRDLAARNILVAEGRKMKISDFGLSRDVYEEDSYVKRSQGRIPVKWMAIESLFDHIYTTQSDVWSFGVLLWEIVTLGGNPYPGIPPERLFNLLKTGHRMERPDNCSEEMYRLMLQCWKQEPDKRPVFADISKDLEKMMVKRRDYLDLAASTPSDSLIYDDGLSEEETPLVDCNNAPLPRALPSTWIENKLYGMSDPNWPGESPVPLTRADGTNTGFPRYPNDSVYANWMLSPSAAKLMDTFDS

[13] = molecular target: T11, CaMKIß(h) (Homo sapiens, UniProt Q6P2M8); conditions: read-out: Inhibition rate (%)
T11 construct: purchased Eurofins (KinaseProfiler)
T11 sequence (Q6P2M8 whole entry): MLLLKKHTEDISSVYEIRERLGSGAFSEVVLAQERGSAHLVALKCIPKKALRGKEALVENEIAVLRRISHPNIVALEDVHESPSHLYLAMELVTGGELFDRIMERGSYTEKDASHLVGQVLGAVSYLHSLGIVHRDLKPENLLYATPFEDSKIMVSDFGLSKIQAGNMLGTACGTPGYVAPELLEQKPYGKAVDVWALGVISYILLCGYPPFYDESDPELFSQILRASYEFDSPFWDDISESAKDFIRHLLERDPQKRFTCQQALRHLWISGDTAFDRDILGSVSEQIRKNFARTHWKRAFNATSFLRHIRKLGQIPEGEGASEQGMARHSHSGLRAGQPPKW

[14] = molecular target: T12, EGFR(L861Q)(h) (Homo sapiens, UniProt P00533, L861Q); conditions: read-out: Inhibition rate (%)
T12 construct: purchased Eurofins (KinaseProfiler)

[15] = molecular target: T13, CSK(h) (Homo sapiens, UniProt P41240); conditions: read-out: Inhibition rate (%)
T13 construct: purchased Eurofins (KinaseProfiler)
T13 sequence (P41240 whole entry): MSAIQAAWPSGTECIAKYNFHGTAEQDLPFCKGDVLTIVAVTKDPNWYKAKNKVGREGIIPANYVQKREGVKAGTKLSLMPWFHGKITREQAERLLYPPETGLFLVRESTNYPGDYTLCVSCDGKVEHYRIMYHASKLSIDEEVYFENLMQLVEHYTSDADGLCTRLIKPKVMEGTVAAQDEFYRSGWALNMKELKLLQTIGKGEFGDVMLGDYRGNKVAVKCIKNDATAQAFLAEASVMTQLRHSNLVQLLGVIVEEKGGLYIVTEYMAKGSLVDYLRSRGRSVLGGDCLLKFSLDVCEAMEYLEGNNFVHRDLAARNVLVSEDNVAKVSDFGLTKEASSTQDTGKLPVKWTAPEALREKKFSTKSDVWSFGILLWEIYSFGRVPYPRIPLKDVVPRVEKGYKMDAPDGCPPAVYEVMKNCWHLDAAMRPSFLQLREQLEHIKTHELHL

[16] = molecular target: T14, LIMK1(h) (Homo sapiens, UniProt P53667); conditions: read-out: Inhibition rate (%)
T14 construct: purchased Eurofins (KinaseProfiler)

With `COc1cc(OC)c(Cl)c(-c2ccc3c(NC(=O)c4ccc(N5CCNC(C)(C)C5)cc4)n[nH]c3n2)c1Cl` [3D185] as the molecule, how does the inhibition at 0.01 µM ([1]; 10 nM) read?
The inhibition at 0.01 µM was -7%.

What about the inhibition at 0.1 µM ([1]; 100 nM) of the same molecule?
The inhibition at 0.1 µM was -5%.

What about the inhibition at 1 µM ([1]; 1000 nM) of the same molecule?
Its inhibition at 1 µM is 7%.

What about the inhibition at 0.01 µM ([2]; 10 nM) of the same molecule?
The inhibition at 0.01 µM was 5%.

And the inhibition at 0.1 µM ([2]; 100 nM)?
Its inhibition at 0.1 µM is 3%.

And the inhibition at 1 µM ([2]; 1000 nM)?
Its inhibition at 1 µM is 11%.

What about the IC50 ([3]; estimated from 372-kinase panel) of the same molecule?
The IC50 was < 0.01 µM.

And the inhibition at 0.01 µM ([3]; read-out: Inhibition rate (%))?
The inhibition at 0.01 µM was 94%.

What about the inhibition at 0.1 µM ([3]; read-out: Inhibition rate (%)) of the same molecule?
The inhibition at 0.1 µM was 99%.

What about the inhibition at 1 µM ([3]; read-out: Inhibition rate (%)) of the same molecule?
The inhibition at 1 µM was 100%.

And the inhibition at 0.01 µM ([4]; 10 nM)?
The inhibition at 0.01 µM was -4%.

What about the inhibition at 0.1 µM ([4]; 100 nM) of the same molecule?
Its inhibition at 0.1 µM is -11%.

What about the inhibition at 1 µM ([4]; 1000 nM) of the same molecule?
The inhibition at 1 µM was -9%.

What about the inhibition at 0.01 µM ([5]; 10 nM) of the same molecule?
Its inhibition at 0.01 µM is 10%.

And the inhibition at 0.1 µM ([5]; 100 nM)?
Its inhibition at 0.1 µM is 12%.

And the inhibition at 1 µM ([5]; 1000 nM)?
The inhibition at 1 µM was 15%.

And the inhibition at 0.01 µM ([6]; 10 nM)?
The inhibition at 0.01 µM was 3%.

What about the inhibition at 0.1 µM ([6]; 100 nM) of the same molecule?
Its inhibition at 0.1 µM is 9%.

What about the inhibition at 1 µM ([6]; 1000 nM) of the same molecule?
The inhibition at 1 µM was 13%.

What about the inhibition at 0.01 µM ([7]; 10 nM) of the same molecule?
The inhibition at 0.01 µM was -3%.

And the inhibition at 0.1 µM ([7]; 100 nM)?
The inhibition at 0.1 µM was 12%.

What about the inhibition at 1 µM ([7]; 1000 nM) of the same molecule?
Its inhibition at 1 µM is -4%.

And the inhibition at 0.01 µM ([8]; 10 nM)?
The inhibition at 0.01 µM was -5%.

And the inhibition at 0.1 µM ([8]; 100 nM)?
The inhibition at 0.1 µM was 1%.

And the inhibition at 1 µM ([8]; 1000 nM)?
Its inhibition at 1 µM is 1%.

What about the “Inhibition rate (%)” value ([9]; 10 nM) of the same molecule?
Its value is -1%.

And the “Inhibition rate (%)” value ([9]; 100 nM)?
The value was 0%.

And the “Inhibition rate (%)” value ([9]; 1000 nM)?
Its value is 2%.

And the inhibition at 0.01 µM ([10]; 10 nM)?
Its inhibition at 0.01 µM is -1%.

And the inhibition at 0.1 µM ([10]; 100 nM)?
The inhibition at 0.1 µM was 8%.

And the inhibition at 1 µM ([10]; 1000 nM)?
Its inhibition at 1 µM is 14%.

And the inhibition at 0.01 µM ([11]; 10 nM)?
The inhibition at 0.01 µM was 4%.

And the inhibition at 0.1 µM ([11]; 100 nM)?
The inhibition at 0.1 µM was 11%.

And the inhibition at 1 µM ([11]; 1000 nM)?
The inhibition at 1 µM was 17%.

And the inhibition at 0.01 µM ([12]; 10 nM)?
The inhibition at 0.01 µM was 8%.

And the inhibition at 0.1 µM ([12]; 100 nM)?
Its inhibition at 0.1 µM is 27%.

What about the inhibition at 1 µM ([12]; 1000 nM) of the same molecule?
Its inhibition at 1 µM is 80%.

What about the inhibition at 0.01 µM ([13]; 10 nM) of the same molecule?
Its inhibition at 0.01 µM is -2%.

And the inhibition at 0.1 µM ([13]; 100 nM)?
The inhibition at 0.1 µM was 6%.

And the inhibition at 1 µM ([13]; 1000 nM)?
Its inhibition at 1 µM is 32%.

And the inhibition at 0.01 µM ([14]; 10 nM)?
Its inhibition at 0.01 µM is -5%.

And the inhibition at 0.1 µM ([14]; 100 nM)?
Its inhibition at 0.1 µM is -5%.

And the inhibition at 1 µM ([14]; 1000 nM)?
The inhibition at 1 µM was 39%.

And the inhibition at 0.01 µM ([15]; 10 nM)?
Its inhibition at 0.01 µM is 8%.

And the inhibition at 0.1 µM ([15]; 100 nM)?
The inhibition at 0.1 µM was 23%.

What about the inhibition at 1 µM ([15]; 1000 nM) of the same molecule?
Its inhibition at 1 µM is 63%.

What about the inhibition at 0.01 µM ([16]; 10 nM) of the same molecule?
The inhibition at 0.01 µM was 2%.

What about the inhibition at 0.1 µM ([16]; 100 nM) of the same molecule?
The inhibition at 0.1 µM was 8%.

What about the inhibition at 1 µM ([16]; 1000 nM) of the same molecule?
Its inhibition at 1 µM is 0%.
